Source: patent US20080027094A1, “Tropane Compounds and Pharmaceutical Compositions Comprising the Same as an Active Ingredient” (Ono Pharmaceutical Co., Ltd., priority 2004, published 2008)

Experiments:
[1] = system: metacholine-induced bladder constriction; test: Effects on the bladder constriction in guinea pigs; format: in vivo; details: Hartley male guinea pigs, intratracheal application, metacholine 10 μg/kg i.v.; maximum dose suppressing less than 20% at all points within 60 min
Protocol: The present experiment was carried out with Hartley male guinea pigs (supplied by Nippon SLC Co.) as divided into groups each consisting of 3 to 4 animals. The guinea pigs were anesthetized with a urethane ([…], given subcutaneously), and were subjected individually to insertion of a catheter into the carotid vein in order to apply metacholine. […] All the ureters were ligated in order to prevent the urine from flowing into the bladder from the kidney. The internal pressure of the bladder was measured by means of a pressure transducer, whereby the bladder was filled with physiological saline to such an extent as might exert lower pressure than the urination threshold pressure against the inner wall. […] Prior to application of the test substance, and from 5 to 60 min. thereafter, respectively, metacholine was applied intravenously (10 μg/kg) to induce the bladder constriction, and the internal pressure of the bladder was measured in a time-course manner. The bladder-constriction ratio was taken as the proportion of the internal pressure of the bladder measured after application of the test substance to the internal pressure of the bladder before application of the test substance. […]

[2] = system: metacholine-induced airway-constriction; test: Effect on the airways constriction in guinea pigs (Konzett-Rossler method); format: in vivo; details: Hartley male guinea pigs, intratracheal application, metacholine 10 μg/kg i.v.; minimum dose suppressing not less than 80% within 60 min
Protocol: The present experiment was carried out with Hartley male guinea pigs (supplied by Nippon SLC Co.) as divided into groups each consisting of 3 to 4 animals. The guinea pigs were anesthetized with pentobarbital sodium (60 mg/kg, given intraperitoneally), and were subjected individually to insertion of a cannula into the airways. Each airway cannula was connected with a volume-controlled respirator (Model SN-480-N, manufactured by Shinano Seisakusho Co.) to perform artificial respiration at a ventilation volume of 5 mL and at a ventilation rate of ca. 70/min. For the purpose of application of metacholine, a catheter was inserted into the carotid vein. […] Prior to application of the test substance, and from 5 to 60 min. thereafter, respectively, metacholine was applied intravenously (10 μg/kg) to induce the airway-constriction, and the pressure at which air was passed through the airways, or the air-passage pressure through the airways, was measured with use of the Konzett-Rossler method. The airways-constriction ratio was taken as a proportion, expressed in percentage, of the air-passage pressure through the airways measured after individual application of the test substance to the maximum air-passage pressure through the airways found when the airways were completely clogged and occluded. […]

SMILES | no-effective dose for the bladder constriction [1] [µg/kg] | effective dose for the airway-constriction suppression [2] [µg/kg]
C[N+]1(C)[C@@H]2C[C@@H](OC(=O)C(O)(c3cccs3)c3cccs3)C[C@H]1[C@@H]1O[C@@H]12 [tiotropium] | 1 | 10
CCOC(=O)COc1cccc(C[N@+]2(C)[C@@H]3CC[C@H]2C[C@@H](OC(=O)C(O)(c2cccs2)c2cccs2)C3)c1.[Br-] [Example 14 (4), (1R,3r,5S,8s)-8-[3-(2-Ethoxy-2-oxoethoxy)benzyl]-3-({hydroxy[di(2-thienyl)]acetyl}oxy)-8-methyl-8-azoniabicyclo[3.2.1]octane bromide] | 30 | 3
